Literature values in patent US20100247512A1, “Pericellular Collagenase Directs the 3-Dimensional Development of White Adipose Tissue” (The Regents of the University of Michigan, priority 2006, published 2010).
The star is where a group is joined. Decanoyl = CCCCCCCCCC(=O)*; CH2Cl = ClC*

Assays:
pro-MT1-MMP = details: Rosenthal, et al., 2005
MT1-MMP = MT1-MMP (Homo sapiens, UniProt P50281); details: Rosenthal, et al., 2005

Substance	inhibition of intracellular conversion of pro-MT1-MMP to its active form (pro-MT1-MMP)	inhibition of MT1-MMP, blocking collagenolysis (MT1-MMP)
deconyl-Arg-Val-Lys-Arg-CMK (Decanoyl-RVKR-CH2Cl)	inhibits the intracellular conversion of pro-MT1-MMP to its active form	–
TIMP-1: member of the tissue inhibitors of metalloproteinases (TIMPs), a family of natural protein MMP inhibitors	–	poor inhibitor of MT1-MMP
